Molecules are shown by their SMILES. Where a SMILES comes first, the peptide text is derived from it. Bridges are numbered along the chain shown (N, C = ends). [ ]: non-standard residue; d: D form. 2Nal = N[C@@H](Cc1ccc2ccccc2c1)C(=O)O; Ala(cPr) = N[C@@H](CC1CC1)C(=O)O; NMeE = CN[C@@H](CCC(=O)O)C(=O)O; NMeQ = CN[C@@H](CCC(N)=O)C(=O)O; Cha = N[C@@H](CC1CCCCC1)C(=O)O; Cba = N[C@@H](CC1CCC1)C(=O)O; S5 = C=CCCC[C@](C)(N)C(=O)O; Ac6c = NC1(C(=O)O)CCCCC1

What is called Kd is the equilibrium constant for the complex coming apart. Read a high Kd as lower affinity. A word on the IC50: it is the concentration that gives 50% inhibition.

The target in experiment [1] is T1, β-catenin (Homo sapiens, UniProt P35222). In words: kd(1/s). From the text: (§1) Table printed on a drawing sheet, FIG. 1
T1 sequence (P35222 2-781 limits assumed): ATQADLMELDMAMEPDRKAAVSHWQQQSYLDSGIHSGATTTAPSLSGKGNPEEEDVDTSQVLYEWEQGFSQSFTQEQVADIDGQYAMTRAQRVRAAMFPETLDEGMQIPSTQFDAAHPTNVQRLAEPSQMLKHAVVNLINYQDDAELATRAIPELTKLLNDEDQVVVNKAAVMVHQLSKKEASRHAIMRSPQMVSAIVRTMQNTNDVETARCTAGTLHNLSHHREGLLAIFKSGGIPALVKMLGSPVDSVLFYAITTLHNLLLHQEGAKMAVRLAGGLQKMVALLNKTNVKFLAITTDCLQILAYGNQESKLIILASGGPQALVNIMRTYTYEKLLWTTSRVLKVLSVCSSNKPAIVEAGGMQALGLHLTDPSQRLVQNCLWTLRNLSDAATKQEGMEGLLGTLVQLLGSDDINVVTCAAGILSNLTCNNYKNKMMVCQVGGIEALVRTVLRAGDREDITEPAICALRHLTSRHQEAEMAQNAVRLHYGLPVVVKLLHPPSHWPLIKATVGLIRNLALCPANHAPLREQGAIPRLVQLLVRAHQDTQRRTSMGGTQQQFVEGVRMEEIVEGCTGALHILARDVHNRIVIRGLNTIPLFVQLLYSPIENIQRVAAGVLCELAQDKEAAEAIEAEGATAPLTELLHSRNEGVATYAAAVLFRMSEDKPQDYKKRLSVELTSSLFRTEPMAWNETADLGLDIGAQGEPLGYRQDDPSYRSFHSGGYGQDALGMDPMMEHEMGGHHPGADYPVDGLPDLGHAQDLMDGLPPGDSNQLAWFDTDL
Head of the field: kd(1/s)
(§2) First copying reader's note: Kinetic binding constants printed under a sensorgram plot (Biacore assay of β-catenin binding according to the description).

Experiment [2] concerns the target T1, β-catenin. In words: ka(1/Ms).
Source text: as §1
Head of the field: ka(1/Ms)
as §2

The target of experiment [3] is T1, β-catenin. In words: KD(nM).
Source text: as §1
Head of the field: KD(nM)
as §2

For a further experiment, the system named is LEF-TCF-bla HCT116 cells. In words: Wnt reporter assay: Wnt/Beta-Catenin-LEF-TCF-bla HCT116 inhibitor screen, constitutively activated. Type of experiment: cell-based. The note with it: 5 hours incubation with compound. From the text:
In various embodiments, a polypeptide described herein inhibits binding of BCL9 to β-catenin when assessed in a Wnt transcription assay. In some embodiments, the Wnt transcription assay is a cell-based assay. In some embodiments, the cell-based Wnt transcription assay is a GeneBLAzer® beta-lactamase (bla) reporter assay. Various cell lines, transformed cell lines or primary cells derived from a healthy subject or subject suffering from a disease can be used in this assay. A cell line known to be dependent on canonical Wnt/β-catenin signaling for its survival may also be used. In some embodiments, CellSensor™ LEF/TCF-bla HCT-116 cells are used in this reporter assay. These cells contain a beta-lactamase (BLA) reporter gene under the control of a 0-catenin/LEF/TCF response element stably integrated into HCT-116 cells. As the cells constitutively express beta-lactamase, adding a polypeptide that inhibits binding of BCL9 to β-catenin in this assay leads to reduced production of beta-lactamase. The efficiency of the polypeptide in suppressing Wnt transcription can therefore be quantitatively calculated in this assay. In some embodiments, a polypeptide described herein suppresses the Wnt transcription as measured in a GeneBLAzer® beta-lactamase (bla) reporter assay, which is indicative of the ability of the polypeptide to inhibit binding of BCL9 to β-catenin.
Wnt/Beta-Catenin-LEF-TCF-bla HCT116-Inhibitor Screen, Constitutively Activated. LEF-TCF-bla HCT116 cells are thawed and prepared as described above for the Activator Screen. 32 μL of cell suspension is added to each well of a 384-well Poly-D-Lysine assay plate. Cells in Assay Media are incubated for 16-24 hours in the plate at 37° C./5% CO2 in a humidified incubator. 4 μL of a 10× serial dilution of ICG-001 (control inhibitor starting concentration, 25,000 nM) or compounds are added to appropriate wells of the plate. 4 μL of Assay Media is added to all wells to bring the final assay volume to 40 μL. The plate is incubated for 5 hours at 37° C./5% CO2 in a humidified incubator. 8 μL of 1 μM Substrate Loading Solution is added to each well and the plate is incubated for 2 hours at room temperature. The plate is read on a fluorescence plate reader.
A general note: In a reporter assay the amount or activity of a reporter protein is the signal.

A further experiment has as its system Colo320DM. In words: Colo320DM cell viability. It counts as cell-based, human. From the text:
In some embodiments, a polypeptide described herein inhibits binding of BLC9 to β-catenin when assessed in a cell-viability assay. In some embodiments, the cell-viability assay is a CellTiterGlo luminescent assay, wherein the viability of cells is quantitatively measured. Various cell lines, transformed cell lines or primary cells derived from a healthy subject or subject suffering from a disease can be used in this assay.

Turning to `CC[C@H](C)[C@@H]1NC(=O)[C@@](C)(NC(=O)[C@H](CCCNC(=N)N)NC(=O)[C@H](CC(C)C)NC(=O)[C@@H](NC(=O)[C@H](CCC(N)=O)NC(=O)[C@H](CC(C)C)NC(=O)[C@H](CO)NC(=O)[C@H](CCCNC(=N)N)NC(=O)[C@H](CCC(N)=O)NC(=O)[C@H](CCCNC(=N)N)NC(=O)[C@H](Cc2c[nH]cn2)NC(C)=O)[C@@H](C)O)CCCC=CCCC[C@@](C)(C(=O)N[C@@H](CC2CCC2)C(=O)N[C@@H](Cc2ccc3ccccc3c2)C(N)=O)NC(=O)[C@H](CCCNC(=N)N)NC(=O)[C@H](CCC(N)=O)NC1=O` [SEQ ID NO: 147, HRQRSLQTLRXIQRX(CBA)(2-Nal)], on β-catenin [1], the “kd” value was determined as 0.009538 s⁻¹. Also, on β-catenin [2], the “ka(1/Ms)” value amounted to 3.348E + 5 1/Ms. The Kd on β-catenin [3] came to 0.0285 µM. For the same compound, the IC50 turned out to be 1.54 µM with LEF-TCF-bla HCT116 cells and 2.53 µM with Colo320DM.
`CC[C@H](C)[C@@H]1NC(=O)[C@@](C)(NC(=O)[C@H](CCCNC(=N)N)NC(=O)[C@H](CC(C)C)NC(=O)[C@@H](NC(=O)[C@H](CCC(N)=O)N(C)C(=O)[C@H](CC(C)C)NC(=O)[C@H](CO)NC(=O)[C@H](CCCNC(=N)N)NC(=O)[C@H](CCC(=O)O)N(C)C(=O)[C@H](CCCNC(=N)N)NC(=O)[C@H](Cc2c[nH]cn2)NC(C)=O)[C@@H](C)O)CCCC=CCCC[C@@](C)(C(=O)N[C@@H](CC2CCC2)C(=O)N[C@@H](Cc2ccc3ccccc3c2)C(N)=O)NC(=O)[C@H](CCCNC(=N)N)NC(=O)[C@H](CCC(N)=O)NC1=O` [SEQ ID NO: 154, HR(N-methylE)RSL(N-methylQ)TLRXIQRX(CBA)(2-Nal)] (Ac-HR[NMeE]RSL[NMeQ]TLR[S5]IQR[S5][Cba][2Nal]-NH2; staple 11-15): the results for the half-inhibitory concentration (IC50) with LEF-TCF-bla HCT116 cells and in the experiment on Colo320DM were 2.26 µM and 1.91 µM, respectively.
As for `CC[C@H](C)[C@@H]1NC(=O)[C@@](C)(NC(=O)[C@H](CCCNC(=N)N)NC(=O)[C@H](CC(C)C)NC(=O)[C@@H](NC(=O)[C@H](CCC(N)=O)N(C)C(=O)[C@H](CC(C)C)NC(=O)[C@H](CO)NC(=O)[C@H](CCCNC(=N)N)NC(=O)[C@H](CCC(N)=O)N(C)C(=O)[C@H](CCCNC(=N)N)NC(=O)[C@H](Cc2c[nH]cn2)NC(C)=O)[C@@H](C)O)CCCC=CCCC[C@@](C)(C(=O)N[C@@H](CC2CCCCC2)C(=O)N[C@@H](Cc2ccc3ccccc3c2)C(N)=O)NC(=O)[C@H](CCCNC(=N)N)NC(=O)[C@H](CCC(N)=O)NC1=O` [SEQ ID NO: 181, HR(N-methylQ)RSL(N-methylQ)TLRXIQRX(Cha)(2-Nal)] (Ac-HR[NMeQ]RSL[NMeQ]TLR[S5]IQR[S5][Cha][2Nal]-NH2; staple 11-15), the IC50 in the experiment on LEF-TCF-bla HCT116 cells is 4.46 µM; in the experiment with Colo320DM, 1.82 µM.
Turning to `CC[C@H](C)[C@@H]1NC(=O)[C@@](C)(NC(=O)[C@H](CCCNC(=N)N)NC(=O)[C@H](CC(C)C)NC(=O)[C@@H](NC(=O)[C@H](CCC(N)=O)NC(=O)[C@H](CC(C)C)NC(=O)[C@H](CO)NC(=O)[C@H](CCCNC(=N)N)NC(=O)[C@H](CCC(N)=O)NC(=O)[C@H](CCCNC(=N)N)NC(=O)[C@H](Cc2c[nH]cn2)NC(C)=O)[C@@H](C)O)CCCC=CCCC[C@@](C)(C(=O)NC2(C(=O)N[C@@H](Cc3ccc4ccccc4c3)C(N)=O)CCCCC2)NC(=O)[C@H](CCCNC(=N)N)NC(=O)[C@H](CCC(N)=O)NC1=O` [SEQ ID NO: 177, HRQRSLQTLRXIQRX(A6C)(2-Nal)] (Ac-HRQRSLQTLR[S5]IQR[S5][Ac6c][2Nal]-NH2; staple 11-15), the IC50 in the experiment with LEF-TCF-bla HCT116 cells is 4.45 µM; in the experiment on Colo320DM, 2.67 µM.
In the case of `CC[C@H](C)[C@@H]1NC(=O)[C@@](C)(NC(=O)[C@H](CCCNC(=N)N)NC(=O)[C@H](CC(C)C)NC(=O)[C@@H](NC(=O)[C@H](CCC(N)=O)NC(=O)[C@H](CC(C)C)NC(=O)[C@H](CO)NC(=O)[C@H](CCCNC(=N)N)NC(=O)[C@H](CCC(N)=O)NC(=O)[C@H](CCCNC(=N)N)NC(=O)[C@H](Cc2c[nH]cn2)NC(C)=O)[C@@H](C)O)CCCC=CCCC[C@@](C)(C(=O)N[C@@H](CC2CC2)C(=O)N[C@@H](Cc2ccc3ccccc3c2)C(N)=O)NC(=O)[C@H](CCCNC(=N)N)NC(=O)[C@H](CCC(N)=O)NC1=O` [SEQ ID NO: 162, HRQRSLQTLRXIQRX(Cpa)(2-Nal)] (Ac-HRQRSLQTLR[S5]IQR[S5][Ala(cPr)][2Nal]-NH2; staple 11-15), the concentration for half-maximal inhibition (IC50) is 7.05 µM in the experiment on LEF-TCF-bla HCT116 cells and 4.19 µM in the experiment with Colo320DM.

These data come from patent publication US11591365B2, “BCL9 peptides and variants thereof” (WntRx Pharmaceuticals Inc., priority 2017, dated 2023).
